Measurements published in paper PMC4399250, “Characterization of HIV-1 entry inhibitors with broad activity against R5 and X4 viral strains” (Journal of Translational Medicine, 2015).
Like-named read-outs stand apart in the source and are kept apart here.

Legend:
[1] = system: influenza A virus; test: Influenza virus-like particle entry assay in MDCK cells; assay type: cell-based; details: three concentrations, bafilomycin 100 nM
[2] = system: HIV-1 IIIB (X4); test: HIV-1 acute infection of PHA-activated PBMC, p24 ELISA, IIIB strain; assay type: cell-based; details: for effect on X4 HIV-1 replication (in words): p24 day 7, concentrations tested up to 30 μM for the six compounds
[3] = system: HIV-1 BaL (R5); test: HIV-1 acute infection of PHA-activated PBMC, p24 ELISA, BaL strain; assay type: cell-based; details: for effect on R5 HIV-1 replication (in words): p24 day 7, concentrations tested up to 30 μM for the six compounds
[4] = system: HIV-1 BaL (R5); test: HIV-1 fusion assay, PM1-BaL donor and TZM-bl target cells; assay type: cell-based; details: PM1-BaL donor, TZM-bl target, 2.5% FCS
[5] = system: HIV-1 IIIB (X4); assay type: cell-based
[6] = system: PBMC; test: MTT cytotoxicity assay on PBMC; assay type: cell-based, human; details: infected PBMC
Procedure: PBMC and TZM-bl viability was measured by the MTT [3-(4,5- dimethylthiazol-2-yl)-2,5-diphenyl tetrazolium bromide; Sigma] assay. Cells were seeded in 96-well plates in three replicates and were incubated for four (TZM-bl) or six (PBMC) days with different concentrations of the compounds or DMSO alone at 0.2% as control. Then 10μl of complete medium containing MTT (0.5 mg/ml) was added to each well. After 24h incubation at 37°C, the supernatant was removed and 200μl of ethanol was added to each well to solubilize the formazan crystals. After vigorous shaking, absorbance was measured in a microplate reader at 490 nm.

[7] = biological target: CXCR4 (Homo sapiens, UniProt P61073); test: Flow cytometry competition with anti CXCR4 moAbs; assay type: binding; details: PM1 cells; ND-4043 30, 10, 3 μM; AMD3100 3, 0.3, 0.03 μM
Chain of CXCR4 (P61073 whole entry): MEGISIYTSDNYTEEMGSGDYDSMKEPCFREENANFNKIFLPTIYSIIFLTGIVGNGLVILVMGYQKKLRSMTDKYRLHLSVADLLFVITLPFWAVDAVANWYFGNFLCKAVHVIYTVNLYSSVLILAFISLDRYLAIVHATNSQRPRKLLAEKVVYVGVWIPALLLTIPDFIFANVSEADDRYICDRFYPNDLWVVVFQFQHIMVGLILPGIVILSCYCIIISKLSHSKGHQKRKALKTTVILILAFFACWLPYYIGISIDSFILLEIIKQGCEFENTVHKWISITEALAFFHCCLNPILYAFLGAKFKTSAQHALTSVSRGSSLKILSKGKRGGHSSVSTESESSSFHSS

[8] = IIIB (X4), infected PBMC, p24 day 7
[9] = BaL (R5), infected PBMC, p24 day 7

Molecule: CO/C1=C\C(C)=C\[C@@H](C)[C@@H](O)[C@@H](C)C/C(C)=C/C=C/[C@H](OC)[C@@H]([C@@H](C)[C@@H](O)[C@H](C)[C@@]2(O)C[C@@H](O)[C@H](C)[C@@H](C(C)C)O2)OC1=O [bafilomycin A1]
- effect on influenza A virus entry [1]: inhibited viral entry significantly

Molecule: Maraviroc
- effect on X4 HIV-1 replication (in words) ([2]; PBMC): no effect
- concentration inhibiting R5 HIV-1 replication ([3]; PBMC, p24 day 7, ten fold dilutions, complete blockade for maraviroc): 0.1 µM
- activity relative to ND-4043 on R5 inhibition ([3]; side-by-side comparison): approximately 100 fold
- effect on R5-mediated fusion (in words) [4]: selectively blocked entry

Molecule: Cn1cc(NC(=O)c2cc(NC(=O)c3cc(NC=O)cn3C)cn2C)cc1C(=O)NCCC(=N)N [compound 4044, distamycin]
- effect on X4-mediated fusion (in words) ([5]; SupT1-IIIB donor, TZM-bl target, 2.5% FCS): did not affect
- CC50 ([6]; table section BaL (R5)): 25 µM
- CC50 ([6]; table section IIIB (X4)): 30 µM
- IC50 [2, 8]: > 30 µM
- IC75 [2, 8]: >30 µM
- IC90 [2, 8]: > 30 µM
- effect on X4 HIV-1 replication (in words) ([2]; PBMC): not effective
- IC50 [3, 9]: > 30 µM
- IC75 [3, 9]: >30 µM
- IC90 [3, 9]: > 30 µM
- effect on R5 HIV-1 replication (in words) ([3]; PBMC): not effective
- effect on R5-mediated fusion (in words) [4]: did not affect

Molecule: c1cc(CN2CCCNCCNCCCNCC2)ccc1CN1CCCNCCNCCCNCC1 [AMD3100]
- effect on X4-mediated fusion (in words) [5]: selectively blocked entry
- concentration inhibiting X4 HIV-1 replication ([2]; PBMC, p24 day 7, ten fold dilutions, complete inhibition for AMD3100): 0.01 µM
- activity relative to ND-4043 on X4 inhibition ([2]; side-by-side comparison): approximately 100 fold
- effect on R5 HIV-1 replication (in words) ([3]; PBMC): no effect
- effect on binding of four anti-CXCR4 moAbs [7]: inhibited binding of the four moAbs in a concentration-dependent manner
